Test results published in PMC8286840, “Identifying SARS-CoV-2 antiviral compounds by screening for small molecule inhibitors of Nsp3 papain-like protease” (Biochemical Journal, 2021).
Counter-ions that a name gives are not always drawn. Like-named read-outs stand apart in the source and are kept apart here.

Key:
[1] = target: T1, SARS-CoV-2 PLpro (nsp3 1564–1878) (Severe acute respiratory syndrome coronavirus 2, UniProt P0DTD1); assay: biochemical; set-up: FRET-quenched peptide (Pro3) cleavage by PLpro, 10 min pre-incubation, slope over 20 min, normalised to no-compound control; conditions: low concentration screen, read-out: % of control remaining
[2] = target: T1, SARS-CoV-2 PLpro (nsp3 1564–1878); assay: biochemical; set-up: FRET-quenched peptide (Pro3) cleavage by PLpro, 10 min pre-incubation, slope over 20 min, normalised to no-compound control; conditions: high concentration screen, read-out: % of control remaining

## CCOc1cc(CC(=O)N[C@@H](CC(C)C)c2ccccc2N2CCCCC2)ccc1C(=O)O [Repaglinide]
[1]; Well no.=4817
  remaining activity at 1.25 µM: 101%
[2]; Well no.=4817
  remaining activity at 3.75 µM: 95.8%

## CC(C)Cc1ccc([C@@H](C)C(=O)NS(C)(=O)=O)cc1 [Reparixin (L-lysine salt)]
[1]; Well no.=8059
  remaining activity at 1.25 µM: 100%
[1]; Well no.=8125
  remaining activity at 1.25 µM: 104%
[2]; Well no.=8059
  remaining activity at 3.75 µM: 99.6%
[2]; Well no.=8125
  remaining activity at 3.75 µM: 104%

## CC(C)Cc1ccc([C@@H](C)C(=O)NS(C)(=O)=O)cc1 [Reparixin]
[1]; Well no.=7277
  remaining activity at 1.25 µM: 99.5%
[1]; Well no.=8501
  remaining activity at 1.25 µM: 106%
[2]; Well no.=7277
  remaining activity at 3.75 µM: 99.9%
[2]; Well no.=8501
  remaining activity at 3.75 µM: 106%

## CCOC(=O)C1=CCCC[C@H]1S(=O)(=O)Nc1ccc(F)cc1Cl [Resatorvid]
[1]; Well no.=8421
  remaining activity at 1.25 µM: 90.4%
[2]; Well no.=8421
  remaining activity at 3.75 µM: 90.5%

## COC(=O)[C@H]1[C@H]2C[C@@H]3c4[nH]c5cc(OC)ccc5c4CCN3C[C@H]2C[C@@H](OC(=O)c2cc(OC)c(OC)c(OC)c2)[C@@H]1OC [Reserpine]
[1]; Well no.=3833
  remaining activity at 1.25 µM: 97%
[2]; Well no.=3833
  remaining activity at 3.75 µM: 94.7%

## CCOCc1nc2c(N)nc3ccccc3c2n1CC(C)(C)O [Resiquimod]
[1]; Well no.=5488
  remaining activity at 1.25 µM: 107%
[1]; Well no.=8499
  remaining activity at 1.25 µM: 102%
[2]; Well no.=5488
  remaining activity at 3.75 µM: 107%
[2]; Well no.=8499
  remaining activity at 3.75 µM: 106%

## Oc1ccc(/C=C/c2cc(O)cc(O)c2)cc1 [Resveratrol]
[1]; Well no.=1492
  remaining activity at 1.25 µM: 94.9%
[1]; Well no.=3130
  remaining activity at 1.25 µM: 101%
[1]; Well no.=3847
  remaining activity at 1.25 µM: 103%
[2]; Well no.=1492
  remaining activity at 3.75 µM: 95.7%
[2]; Well no.=3130
  remaining activity at 3.75 µM: 102%
[2]; Well no.=3847
  remaining activity at 3.75 µM: 101%

## CC1=C(/C=C/C(C)=C/C=C/C(C)=C/C(=O)Nc2ccc(O)cc2)C(C)(C)CCC1 [Retinoic acid p-hydroxyanilide]
[1]; Well no.=708
  remaining activity at 1.25 µM: 97.5%
[2]; Well no.=708
  remaining activity at 3.75 µM: 94.4%

## CC1=C(/C=C/C(C)=C/C=C/C(C)=C/C(=O)O)C(C)(C)CCC1 [Retinoic acid]
[1]; Well no.=1252
  remaining activity at 1.25 µM: 98%
[1]; Well no.=1628
  remaining activity at 1.25 µM: 95.7%
[1]; Well no.=3132
  remaining activity at 1.25 µM: 102%
[1]; Well no.=4426
  remaining activity at 1.25 µM: 101%
[1]; Well no.=6163
  remaining activity at 1.25 µM: 106%
[2]; Well no.=1252
  remaining activity at 3.75 µM: 98.8%
[2]; Well no.=1628
  remaining activity at 3.75 µM: 99.6%
[2]; Well no.=3132
  remaining activity at 3.75 µM: 104%
[2]; Well no.=4426
  remaining activity at 3.75 µM: 101%
[2]; Well no.=6163
  remaining activity at 3.75 µM: 108%

## CCCCCCCCCCCCCCCC(=O)OC/C=C(C)/C=C/C=C(C)/C=C/C1=C(C)CCCC1(C)C [Retinyl palmitate]
[1]; Well no.=4134
  remaining activity at 1.25 µM: 96.7%
[2]; Well no.=4134
  remaining activity at 3.75 µM: 97.6%

## C/C=C1\C[C@@H](C)[C@](O)(CO)C(=O)OCC2=CCN3CC[C@@H](OC1=O)[C@@H]23 [Retrorsine]
[1]; Well no.=3298
  remaining activity at 1.25 µM: 99.9%
[2]; Well no.=3298
  remaining activity at 3.75 µM: 104%

## O=C(NCCCN1CCOCC1)c1cnn2c(-c3ccccc3)cc(-c3ccccc3)nc12 [Reversan]
[1]; Well no.=5656
  remaining activity at 1.25 µM: 96.9%
[2]; Well no.=5656
  remaining activity at 3.75 µM: 98.2%

## c1nc2c(NC3CCCCC3)nc(Nc3ccc(N4CCOCC4)cc3)nc2[nH]1 [Reversine]
[1]; Well no.=2621
  remaining activity at 1.25 µM: 98.6%
[2]; Well no.=2621
  remaining activity at 3.75 µM: 100%

## COc1ccc(/C=C/c2cc(O)cc(O[C@@H]3O[C@H](CO)[C@@H](O)[C@H](O)[C@H]3O)c2)cc1O [Rhapontin]
[1]; Well no.=3300
  remaining activity at 1.25 µM: 102%
[2]; Well no.=3300
  remaining activity at 3.75 µM: 101%

## c1ccc2c(-c3ccncc3)c[nH]c2c1 [Rho Kinase Inhibitor III, Rockout]
[1]; Well no.=2557
  remaining activity at 1.25 µM: 101%
[2]; Well no.=2557
  remaining activity at 3.75 µM: 103%

## Cc1cncc2cccc(S(=O)(=O)N3CCCN(C(=O)CN)C[C@@H]3C)c12 [Rho Kinase Inhibitor IV]
[1]; Well no.=2559
  remaining activity at 1.25 µM: 104%
[2]; Well no.=2559
  remaining activity at 3.75 µM: 105%

## C[C@@H]1O[C@@H](O[C@H]2[C@H](Oc3cc(O)c4c(=O)cc(-c5ccc(O)cc5)oc4c3)O[C@H](CO)[C@@H](O)[C@@H]2O)[C@H](O)[C@H](O)[C@H]1O [Rhoifolin]
[1]; Well no.=3733
  remaining activity at 1.25 µM: 95.5%
[2]; Well no.=3733
  remaining activity at 3.75 µM: 98.5%

## N[C@H](Cc1c[nH]c2ccccc12)C(=O)N/N=C/c1ccc2nccnc2c1 [Rhosin (hydrochloride)]
[1]; Well no.=7170
  remaining activity at 1.25 µM: 91.4%
[2]; Well no.=7170
  remaining activity at 3.75 µM: 93%

## NC(=O)c1ncn([C@@H]2O[C@H](CO)[C@@H](O)[C@H]2O)n1 [Ribavirin]
[1]; Well no.=1256
  remaining activity at 1.25 µM: 96.8%
[1]; Well no.=2199
  remaining activity at 1.25 µM: 96.4%
[2]; Well no.=1256
  remaining activity at 3.75 µM: 97.1%
[2]; Well no.=2199
  remaining activity at 3.75 µM: 98.2%

## OC[C@@H](O)[C@@H](O)[C@@H](O)CO [Ribitol]
[1]; Well no.=6775
  remaining activity at 1.25 µM: 104%
[2]; Well no.=6775
  remaining activity at 3.75 µM: 102%

## CCCCCC[C@@H](O)C/C=C\CCCCCCCC(=O)O [Ricinoleic acid]
[1]; Well no.=4484
  remaining activity at 1.25 µM: 102%
[2]; Well no.=4484
  remaining activity at 3.75 µM: 99.9%

## CCC[S+]([O-])c1ccc2[nH]c(NC(=O)OC)nc2c1 (stereo not drawn) [Ricobendazole]
[1]; Well no.=2021
  remaining activity at 1.25 µM: 103%
[2]; Well no.=2021
  remaining activity at 3.75 µM: 106%

## CO[C@H]1/C=C/O[C@@]2(C)Oc3c(C)c(O)c4c(O)c(c(/C=N/N5CCN(C)CC5)c(O)c4c3C2=O)NC(=O)/C(C)=C\C=C\[C@H](C)[C@H](O)[C@@H](C)[C@@H](O)[C@@H](C)[C@H](OC(C)=O)[C@@H]1C [Rifampicin]
[1]; Well no.=1668
  remaining activity at 1.25 µM: 103%
[1]; Well no.=3138
  remaining activity at 1.25 µM: 101%
[2]; Well no.=1668
  remaining activity at 3.75 µM: 102%
[2]; Well no.=3138
  remaining activity at 3.75 µM: 97.7%

## COc1cc(OC)c(/C=C/S(=O)(=O)Cc2ccc(OC)c(NCC(=O)O)c2)c(OC)c1 [Rigosertib (sodium)]
[1]; Well no.=6400
  remaining activity at 1.25 µM: 98.5%
[2]; Well no.=6400
  remaining activity at 3.75 µM: 97.7%

## C1COC(NC(C2CC2)C2CC2)=N1 [Rilmenidine hemifumarate]
[1]; Well no.=1450
  remaining activity at 1.25 µM: 101%
[2]; Well no.=1450
  remaining activity at 3.75 µM: 99.9%

## CC(N)C12CC3CC(CC(C3)C1)C2 (stereo not drawn) [Rimantadine]
[1]; Well no.=2203
  remaining activity at 1.25 µM: 99.7%
[2]; Well no.=2203
  remaining activity at 3.75 µM: 99.8%

## CC[C@H](C(=O)N1CCCC[C@H]1C(=O)O[C@H](CCc1ccc(OC)c(OC)c1)c1cccc(OCC(=O)NCCNC(=O)COc2cccc([C@@H](CCc3ccc(OC)c(OC)c3)OC(=O)[C@@H]3CCCCN3C(=O)[C@@H](CC)c3cc(OC)c(OC)c(OC)c3)c2)c1)c1cc(OC)c(OC)c(OC)c1 [Rimiducid]
[1]; Well no.=7156
  remaining activity at 1.25 µM: 94.6%
[1]; Well no.=8596
  remaining activity at 1.25 µM: 96.4%
[2]; Well no.=7156
  remaining activity at 3.75 µM: 91.8%
[2]; Well no.=8596
  remaining activity at 3.75 µM: 89.6%
